Among the data in patent US7067535B2, “5-Phenylbenzylamine compounds, process for their production and intermediates for their synthesis” (Tanabe Seiyaku Co., Ltd., priority 2000, dated 2006) are melting point values, retold here.

Structures can show the parent of a compound that is named as a salt.

As a reminder, the melting point is the temperature of the solid-liquid transition.

Consider `COc1ccc(-c2ccc(Cl)cc2)cc1CN[C@H]1CCCN[C@H]1c1ccccc1` [Example 7, [2-methoxy-5-(4-chlorophenyl)benzyl][(2S,3S)-2-phenylpiperidin-3-yl]amine], for which the melting point is 272 to 274 °C (dec.). As for `COc1ccc(-c2ccc(F)cc2)cc1[C@@H](C)N[C@H]1CCCN[C@H]1c1ccccc1` (as salt: hydrochloride) [Example 101, [2-methoxy-5-(4-fluorophenyl)-(R)-α-methylbenzyl][(2S,3S)-2-phenylpiperidin-3-yl]amine dihydrochloride], the melting point was 200 to 204 °C (dec.). Turning to `COc1ccc(-c2ccc(F)cc2)cc1[C@H](C)N[C@H]1CCCN[C@H]1c1ccccc1` (as salt: hydrochloride) [Example 102, [2-methoxy-5-(4-fluorophenyl)-(S)-α-methylbenzyl][(2S,3S)-2-phenylpiperidin-3-yl]amine dihydrochloride], the melting point is 274 to 278 °C (dec.).

On to `COc1ccc(-c2ccc(C#N)cc2F)cc1CN[C@H]1CC[C@@H](C)N[C@H]1c1ccccc1` [Example 112, [2-methoxy-5-(2-fluoro-4-cyanophenyl)benzyl]-[(2S,3S,6R)-6-methyl-2-phenylpiperidin-3-yl]amine], for which the melting point was 301 to 302 °C (dec.). In the case of `COc1ccc(-c2ccc(F)cc2)cc1CN[C@H]1CCCN[C@H]1c1ccccc1.Cl.Cl`, the melting point is 277 to 279 °C (dec.). Regarding `COc1ccc(-c2ccc(F)cc2)cc1CN[C@H]1CCCN(Cc2n[nH]c(=O)o2)[C@H]1c1ccccc1` (as salt: hydrochloride) [Example 106, (2S,3S)-1-[5(4H)-oxo-1,3,4-oxadiazol-2-yl]methyl-2-phenyl-3-[[2-methoxy-5-(4-fluorophenyl)benzyl]amino]piperidine-dihydrochloride], the melting point was 212 to 216 °C (dec.).

With `COc1ccc(-c2ccc(F)cc2)cc1CN[C@H]1CCCN(Cc2nnc[nH]2)[C@H]1c1ccccc1` (as salt: hydrochloride) [Example 103, (2S,3S)-1-(1,2,4-triazol-3-ylmethyl)-2-phenyl-3-[[2-methoxy-5-(4-fluorophenyl)benzyl]amino]piperidine trihydrochloride], the melting point was 208 to 210 °C (dec.). In the case of `COc1ccc(-c2ccccc2C(F)(F)F)cc1CN[C@H]1CCCN[C@H]1c1ccccc1.Cl.Cl` (racemic), the melting point was 260 to 262 °C. On to `COc1ccc(-c2ccc(F)cc2)cc1CN[C@H]1CCCN(Cc2n[nH]c(=O)[nH]2)[C@H]1c1ccccc1` (as salt: hydrochloride) [Example 104, (2S,3S)-1-[5(4H)-oxo-1,2,4-triazol-3-yl]methyl-2-phenyl-3-[[2-methoxy-5-(4-fluorophenyl)benzyl]amino]piperidine dihydrochloride], for which the melting point was 198 to 200 °C (dec.). As to `COc1ccc(-c2ccc(F)cc2)cc1CN[C@H]1CCCN(Cc2n[nH]c(=S)[nH]2)[C@H]1c1ccccc1` (as salt: hydrochloride) [Example 105, (2S,3S)-1-[5(4H)-thioxo-1,2,4-triazol-3-yl]methyl-2-phenyl-3-[[2-methoxy-5-(4-fluorophenyl)benzyl]amino]piperidinedihydrochloride], the melting point is 180 to 182 °C (dec.). As for `COc1ccc(-c2ccc(C#N)cc2F)cc1CN[C@H]1CCCN[C@H]1c1ccccc1` [Example 51, [2-methoxy-5-(2-fluoro-4-cyanophenyl)benzyl][(2S,3S)2-phenylpiperidin-3-yl]amine], the melting point was 280 to 281 °C (dec.). With `COc1ccc(-c2ccc(C#N)cc2)cc1CN[C@H]1CC[C@@H](C)N[C@H]1c1ccccc1` [Example 113, [2-methoxy-5-(4-cyanophenyl)benzyl][(2S,3S,6R)6-methyl-2-phenylpiperidin-3-yl]amine], the melting point is 298 to 300 °C. As for `COc1ccc(-c2ccc(C#N)cc2)cc1CN[C@H]1CCCN[C@H]1c1ccccc1` [Example 16, [2-methoxy-5-(4-cyanophenyl)benzyl][(2S,3S)-2-phenylpiperidin-3-yl]amine], the figure is 277 to 278 °C (dec.).
